According to patent publication US5770732A, “Pyrrolinone-based peptidomimetics” (The Trustees of the University of Pennsylvania, priority 1994, dated 1998):

Target: T1, renin (Homo sapiens, UniProt P00797)
T1 sequence (P00797 67-406): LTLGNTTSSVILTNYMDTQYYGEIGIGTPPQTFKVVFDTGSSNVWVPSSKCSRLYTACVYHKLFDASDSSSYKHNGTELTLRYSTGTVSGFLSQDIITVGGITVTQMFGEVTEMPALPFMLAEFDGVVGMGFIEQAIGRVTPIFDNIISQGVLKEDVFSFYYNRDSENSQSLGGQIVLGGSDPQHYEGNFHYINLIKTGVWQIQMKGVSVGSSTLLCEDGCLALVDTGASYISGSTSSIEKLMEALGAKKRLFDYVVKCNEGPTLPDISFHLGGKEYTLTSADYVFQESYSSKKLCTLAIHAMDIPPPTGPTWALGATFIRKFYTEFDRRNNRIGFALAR
Test: Renin inhibition
Format: biochemical

[5(S)-prenyl-(5-benzyl)pyrrolin-4-one-3]-2(R)-isobutylacetate-[1-amino-1(S)-cyclohexylmethyl-2(R)3 3(S)-dihydroxy-5-methyl-hexane]-amide [Structure (10a)]
concentration at which found to act as effective renin inhibitor: 700 nM
